According to patent US9056111B1, “Selective efflux inhibitors and related pharmaceutical compositions and methods of treatment” (STC.UNM, priority 2011, dated 2015):

Legend:
[1] = target: T1, ABCG2 (Homo sapiens, UniProt Q9UNQ0); test: JC-1 efflux inhibition dose response, flow cytometry, Ig-MXP3 cells
T1 sequence (Q9UNQ0 1-655): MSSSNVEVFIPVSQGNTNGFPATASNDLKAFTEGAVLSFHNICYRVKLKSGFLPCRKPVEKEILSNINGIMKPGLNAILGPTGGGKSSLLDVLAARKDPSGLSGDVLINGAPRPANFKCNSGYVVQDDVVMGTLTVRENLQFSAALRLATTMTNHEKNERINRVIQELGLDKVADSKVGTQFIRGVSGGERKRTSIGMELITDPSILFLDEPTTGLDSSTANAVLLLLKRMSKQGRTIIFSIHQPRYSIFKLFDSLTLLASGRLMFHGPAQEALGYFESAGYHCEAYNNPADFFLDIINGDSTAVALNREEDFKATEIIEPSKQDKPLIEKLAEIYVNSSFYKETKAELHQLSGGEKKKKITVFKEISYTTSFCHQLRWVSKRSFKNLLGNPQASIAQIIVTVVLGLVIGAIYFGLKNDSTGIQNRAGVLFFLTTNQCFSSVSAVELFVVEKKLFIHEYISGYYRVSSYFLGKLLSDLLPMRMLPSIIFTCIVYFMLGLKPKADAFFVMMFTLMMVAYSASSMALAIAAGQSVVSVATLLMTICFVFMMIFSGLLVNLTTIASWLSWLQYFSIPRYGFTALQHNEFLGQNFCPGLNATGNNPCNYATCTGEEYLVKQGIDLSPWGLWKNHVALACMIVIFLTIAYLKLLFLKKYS
Description: (§1) The HyperCyt® high throughput flow cytometry platform (IntelliCyt™, Albuquerque, N. Mex.) was used to sequentially sample cells from 384-well microplates (2 μL/sample) for flow cytometer presentation at a rate of 40 samples per minute.^62-63 Flow cytometric analysis was performed on a CyAn™ flow cytometer (Beckman-Coulter, Fullerton, Calif.). The resulting time-gated data files were analyzed with HyperView® software to determine compound activity in each well. Inhibition response curves were fitted by Prism® software (GraphPad Software, Inc., San Diego, Calif.) using nonlinear least-squares regression in a sigmoidal dose response model with variable slope, also known as the four-parameter logistic equation. This type of time-gated flow cytometric data analysis was described in detail for a previous ABC transporter screen from our group.^56
(§2) The assay provider's ABCB1 over-expressing Jurkat-DNR cell line is used for confirmatory follow up instead of the CCRF-Adr cells. Each cell line (Jurkat-DNR and Ig-MXP3) is run separately against all compounds (no differential cell staining) in dose response. The assay is conducted in 384-well format in a total volume of 15.1 μL. Cells and reagents are added sequentially as follows: 1) PBS buffer (5 μL/well); 2) test compound (100 nL/well); 3) drug-resistant cells (10 μL/well) pre-stained with the JC-1 substrate at 1 μM. […] Nicardipine (50 μM) is added to each plate as a pan-inhibition positive control.
(§3) Each cell line (Jurkat-DNR and Ig-MXP3) was run separately against all compounds (no differential cell staining) in dose-response. The protocol differed from the single point screen as describe here. Cells and reagents were added sequentially as follows: 1) PBS buffer (5 μL per well); 2) test compound (100 nL per well); 3) drug-resistant cells (10 μL, per well) pre-exposed to the JC-1 substrate at 1 μM just prior to the well addition.

[2] = target: T2, ABCB1 / ABCG2 (Homo sapiens, UniProt Q9UNQ0); test: as above; conditions: human, probe JC-1 (1 µM), ~Fold G2 Selective (B1/G2), quotient of average ABCB1 IC50 and average ABCG2 IC50, efflux assay
T2 sequence (Q9UNQ0 1-655): T1 sequence (Q9UNQ0 1-655)
Description: as §1, §2, §3

[3] = target: ABCB1 (Homo sapiens, UniProt P08183); test: JC-1 efflux inhibition dose response, flow cytometry, Jurkat-DNR cells; conditions: IC50 ABCB1 (efflux inhibition of JC-1 substrate), Jurkat-DNR cells over-expressing ABCB1; averages of two to four replicates
Description: as §1
The assay provider's ABCB1 over-expressing Jurkat-DNR cell line is used for confirmatory follow up instead of the CCRF-Adr cells. Each cell line (Jurkat-DNR and Ig-MXP3) is run separately against all compounds (no differential cell staining) in dose response. The assay is conducted in 384-well format in a total volume of 15.1 μL. Cells and reagents are added sequentially as follows: 1) PBS buffer (5 μL/well); 2) test compound (100 nL/well); 3) drug-resistant cells (10 μL/well) pre-stained with the JC-1 substrate at 1 μM. Final in-well concentrations of test compound range from 50 μM to 69 nM over an 18 point dose response and the cell concentration is 1×10^6 cells/mL. Nicardipine (50 μM) is added to each plate as a pan-inhibition positive control. The plate is rotated end-over-end at 4 RPM and 25° C. for 30 minutes and then cell samples are analyzed and flow cytometric data of light scatter and fluorescence emission at 530+/−20 nm (488 nm excitation, FL1) are collected.
as §3, with “addition. Final in-well concentrations of test compound ranged from 50 μM to 69 nM over an 18 point dose-response and the cell concentration was 1×10^6 cells mL^−1.” for “addition.”

Sequence of ABCB1 (P08183 whole entry): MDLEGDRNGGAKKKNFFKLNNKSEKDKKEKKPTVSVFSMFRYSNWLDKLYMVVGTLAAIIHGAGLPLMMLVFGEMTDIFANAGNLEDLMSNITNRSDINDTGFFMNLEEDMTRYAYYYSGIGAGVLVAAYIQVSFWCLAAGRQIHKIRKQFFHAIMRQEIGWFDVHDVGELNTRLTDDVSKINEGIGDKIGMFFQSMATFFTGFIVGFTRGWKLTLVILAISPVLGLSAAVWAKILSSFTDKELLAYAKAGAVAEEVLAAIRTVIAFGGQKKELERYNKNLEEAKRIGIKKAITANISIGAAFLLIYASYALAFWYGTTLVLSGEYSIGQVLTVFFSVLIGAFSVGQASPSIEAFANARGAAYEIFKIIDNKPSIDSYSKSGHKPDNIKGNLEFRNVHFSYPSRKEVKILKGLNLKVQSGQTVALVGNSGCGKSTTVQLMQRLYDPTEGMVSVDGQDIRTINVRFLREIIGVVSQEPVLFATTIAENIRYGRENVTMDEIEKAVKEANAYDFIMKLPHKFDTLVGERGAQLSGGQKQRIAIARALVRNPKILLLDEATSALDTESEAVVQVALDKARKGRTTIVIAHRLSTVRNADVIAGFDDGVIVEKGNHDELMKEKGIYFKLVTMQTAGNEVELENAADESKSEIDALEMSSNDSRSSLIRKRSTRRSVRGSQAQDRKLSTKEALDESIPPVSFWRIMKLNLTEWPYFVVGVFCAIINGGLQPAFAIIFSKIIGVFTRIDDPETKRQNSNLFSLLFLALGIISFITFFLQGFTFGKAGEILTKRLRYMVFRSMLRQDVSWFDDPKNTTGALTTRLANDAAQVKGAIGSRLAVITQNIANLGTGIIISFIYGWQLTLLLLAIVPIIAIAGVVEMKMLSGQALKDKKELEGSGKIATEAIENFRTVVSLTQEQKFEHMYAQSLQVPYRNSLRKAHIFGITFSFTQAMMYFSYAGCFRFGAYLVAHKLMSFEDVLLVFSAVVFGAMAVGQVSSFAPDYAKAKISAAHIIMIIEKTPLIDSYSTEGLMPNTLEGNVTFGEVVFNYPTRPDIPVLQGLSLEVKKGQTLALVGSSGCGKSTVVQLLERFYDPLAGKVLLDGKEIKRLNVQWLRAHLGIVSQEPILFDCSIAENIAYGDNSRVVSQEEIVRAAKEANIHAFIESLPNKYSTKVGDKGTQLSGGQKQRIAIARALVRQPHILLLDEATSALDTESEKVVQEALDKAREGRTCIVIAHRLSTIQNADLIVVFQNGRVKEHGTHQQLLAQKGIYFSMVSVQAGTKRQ

Row | IC50 [1] | IC50 [3] | Structure (SMILES) | selectivity ratio at 30 min [2]
1 | 4.92 ± 4.28 µM | 4.73 ± 1.78 µM | COc1ccccc1C(=O)N1CCN(c2cc(-c3ccccc3)nc3cc(-c4cccc(Cl)c4)nn23)CC1 [Compound 14] | 1
2 | 2.36 ± 0.53 µM | 10.2 ± 3.99 µM | C#Cc1cc(N2CCN(C(=O)c3ccoc3)CC2)n2nc(-c3cccc(Cl)c3)cc2n1 [Compound 32] | 4.3
3 | 2.78 ± 0.82 µM | 5.88 ± 1.17 µM | Cc1cc(N2CCN(C(=O)c3ccco3)CC2)n2nc(-c3cccc(Cl)c3)cc2n1 [Compound 10] | 2.1
4 | 1.64 ± 0.52 µM | 4.06 ± 1.78 µM | O=C1CN(c2cc(-c3ccco3)nc3cc(-c4ccccc4)nn23)CCN1c1ccccc1 [Compound 83] | 2.5
5 | 5.43 ± 4.11 µM | 13.1 ± 6.27 µM | CN(CCCN(C)c1cc(-c2ccco2)nc2cc(-c3ccccc3)nn12)C(=O)c1ccoc1 [Compound 81] | 2.4
6 | 2.67 ± 0.85 µM | 2.36 ± 0.7 µM | O=C(c1ccc(Cl)cc1)N1CCN(c2cc(-c3ccccc3)nc3cc(-c4cccc(Cl)c4)nn23)CC1 [Compound 19] | 0.9
7 | 1.64 ± 0.03 µM | 3.46 µM | O=C(c1ccoc1)N1CCN(c2cc(-c3cccs3)nc3cc(-c4ccccc4)nn23)CC1 [Compound 64] | 2.1
8 | 1.97 µM | 3.31 µM | CC(C)(C)c1cc2nc(-c3ccco3)cc(N3CCN(C(=O)c4ccoc4)CC3)n2n1 [Compound 50] | 1.7
9 | 2.95 ± 0.57 µM | 4.19 ± 1.88 µM | O=C(c1cccc(Cl)c1)N1CCN(c2cc(-c3ccccc3)nc3cc(-c4cccc(Cl)c4)nn23)CC1 [Compound 18] | 1.4
10 | 2.76 ± 2.14 µM | 5.57 µM | COc1ccccc1-c1cc2nc(-c3ccco3)cc(N3CCN(C(=O)c4ccoc4)CC3)n2n1 [Compound 55] | 2
11 | 2.46 ± 1.09 µM | 3.88 ± 1.67 µM | Cc1cccc(-c2cc3nc(-c4ccccc4)cc(N4CCN(C(=O)c5ccco5)CC4)n3n2)c1 [Compound 40] | 1.6
12 | 1.14 ± 0.59 µM | 2.26 ± 0.83 µM | COc1cccc(-c2cc3nc(-c4ccccc4)cc(N4CCN(C(=O)c5ccoc5)CC4)n3n2)c1 [Compound 35] | 2
13 | 13 ± 7.88 µM | 17.5 ± 5.88 µM | CN(CCN(C)c1cc(-c2ccco2)nc2cc(-c3ccccc3)nn12)C(=O)c1ccoc1 [Compound 80] | 1.3
14 | 7.27 ± 3.01 µM | 15.8 ± 3.33 µM | Cc1cc(N2CCN(C(=O)c3ccoc3)CC2)n2nc(-c3ccccc3)cc2n1 [Compound 63] | 2.2
15 | 1.4 ± 0.32 µM | 3.97 ± 0.8 µM | O=C(c1ccsc1)N1CCN(c2cc(-c3ccccc3)nc3cc(-c4cccc(Cl)c4)nn23)CC1 [Compound 12] | 2.8
16 | 2.25 ± 1.9 µM | 19.1 ± 9.52 µM | O=C(c1ccoc1)N1CCCN(c2cc(-c3ccco3)nc3cc(-c4ccccc4)nn23)C1 [Compound 85] | 8.5

Row | IC50 [1] | IC50 [3] | Structure (SMILES) | selectivity ratio at 30 min [2]
17 | 6.07 ± 0.73 µM | 5.67 ± 2.21 µM | CC(=O)N1CCN(c2cc(-c3ccccc3)nc3cc(-c4cccc(Cl)c4)nn23)CC1 [Compound 23] | 0.9
18 | 2.77 ± 4.01 µM | 6.57 ± 2.13 µM | O=C(c1ccco1)N1CCN(c2cc(-c3ccco3)nc3cc(-c4ccccc4)nn23)CC1 [Compound 67] | 2.4
19 | 1.14 ± 0.54 µM | 2.17 ± 1.02 µM | COc1cccc(-c2cc(N3CCN(C(=O)c4ccoc4)CC3)n3nc(-c4cccc(Cl)c4)cc3n2)c1 [Compound 28] | 1.9
20 | 1.68 ± 0.61 µM | 7.07 µM | O=C(c1ccoc1)N1CCN(c2cc(-c3cccc(F)c3)nc3cc(-c4ccccc4)nn23)CC1 [Compound 47] | 4.2
21 | 1.89 ± 1.18 µM | 41.5 µM | O=C(c1ccoc1)N1CCN(c2cc(-c3ccco3)nc3cc(-c4ccc(Cl)cc4)nn23)CC1 [Compound 54] | 22
22 | 2.67 ± 1.26 µM | 3.31 ± 1.86 µM | O=C(C1CCCCC1)N1CCN(c2cc(-c3ccccc3)nc3cc(-c4cccc(Cl)c4)nn23)CC1 [Compound 22] | 1.2
23 | 2.27 ± 0.06 µM | 4.34 ± 2.09 µM | O=C(c1ccccc1)N1CCN(c2cc(-c3ccccc3)nc3cc(-c4cccc(F)c4)nn23)CC1 [Compound 42] | 1.9
24 | 25.5 ± 13.4 µM | 11.9 ± 8.94 µM | CNCCCN(C)c1cc(-c2ccco2)nc2cc(-c3ccccc3)nn12 [Compound 79] | 0.5
25 | 5.71 ± 1.8 µM | 23.6 ± 12.1 µM | c1ccc(-c2cc3nc(-c4ccco4)cc(N4CCNCC4)n3n2)cc1 [Compound 77] | 4.1
26 | 2.18 ± 1.93 µM | 1.63 ± 0.59 µM | Cc1nc2cc(-c3ccccc3)nn2c(N2CCN(C(=O)c3ccoc3)CC2)c1C [Compound 89] | 0.7
27 | 11.5 µM | 5.62 µM | CC(C)(C)c1cc(N2CCN(C(=O)c3ccoc3)CC2)n2nc(-c3ccccc3)cc2n1 [Compound 49] | 0.5
28 | 2.41 ± 0.52 µM | 5.65 ± 0.11 µM | O=C(c1ccoc1)N1CCN(c2cc(-c3ccc(F)cc3)nc3cc(-c4cccc(Cl)c4)nn23)CC1 [Compound 27] | 2.3
29 | 1.71 ± 0.58 µM | 4.12 ± 1.05 µM | COc1ccc(-c2cc(N3CCN(C(=O)c4ccoc4)CC3)n3nc(-c4cccc(Cl)c4)cc3n2)cc1 [Compound 29] | 2.4
30 | 1.4 ± 0.32 µM | 4.77 ± 0.63 µM | COc1cccc(-c2cc3nc(-c4ccccc4)cc(N4CCN(C(=O)c5ccco5)CC4)n3n2)c1 [Compound 38] | 3.4
31 | 1.37 ± 0.53 µM | 3.64 ± 1.47 µM | O=C(c1ccco1)N1CCN(c2cc(-c3ccccc3)nc3cc(-c4ccc(Cl)cc4)nn23)CC1 [Compound 39] | 2.7
